Data: patent US20080146540A1, “Methods of diagnosis and treatment for asthma, allergic rhinitis and other respiratory diseases based on haplotype association” (priority 2003, published 2008)
Read-outs that look alike come from different tables or passages of the source.

What was measured:
[1] = system: exhaled nitric oxide (eNO); assay: Phase II clinical study CEP-1347-201: exhaled nitric oxide (eNO) change from baseline; type: in vivo, human; details: for eNO Change from Baseline at Week 8, LS Mean: ANCOVA
From the text: eNO has been used as a biomarker for measuring airways inflammation. eNO correlates with eosinophilic inflammation in asthmatic patients and is increased in patients with untreated asthma and decreased with corticosteroid treatment.

IL-1β = details: lipopolysaccharide challenge; cited from earlier work
asthma patients [2] = assay: Phase II clinical study CEP-1347-201: asthma exacerbations and airway remodeling; type: in vivo, human
From the text: However, given the near normal lung function of the population evaluated in this exploratory Phase 2 trial, positive trends can only be established with respect to the effects of CEP-1347 in asthma due to lack of statistical significance in certain aspects of the study. Furthermore, the trial patient numbers for at-risk haplotype carriers were not large enough to achieve significant power to adequately test the effect on these haplotype positive patients. The asthma patients enrolled into CEP-1347-201 were well treated with near normal lung function and any apparent lack of treatment effect could be attributed, in part, to deficiencies in study design as opposed to a lack of CEP-1347 effect.
The term “airway remodeling” in bronchial asthma refers to structural changes that occur in conjunction with, or because of, chronic airway inflammation. Airway remodeling results in alterations in the airway epithelium, lamina propria, and submucosa, leading to thickening of the airway wall. Another common attribute of asthmatic airways is eosinophilia. Eosinophils expressing the CCR3 chemokine receptor are drawn from pulmonary circulation primarily by Eotaxin/CCL11, which is overexpressed in asthmatic respiratory membrane epithelial cells, fibroblasts, and smooth muscle cells. […]

sE-Selectin = assay: Phase II clinical study CEP-1347-201: sE-Selectin change from baseline; type: in vivo, human; details: for sE Selection Change from Baseline at Week 8, LS Mean: ANCOVA
From the text: Results from an ANCOVA (analysis of covariance) including treatment group as a factor and the baseline value as a covariate are presented in Table 24.

mice = details: cited from earlier work
[3] = target: choline acetyltransferase (ChAT); details: cited from earlier work
IL-8 = assay: Phase II clinical study CEP-1347-201: sputum IL-8; type: in vivo, human; details: samples not collected in a systematic manner
MLK1 = MLK1 (Homo sapiens, UniProt P80192); details: MLK active site; cited from earlier work
MLK1, sequence (P80192 whole entry): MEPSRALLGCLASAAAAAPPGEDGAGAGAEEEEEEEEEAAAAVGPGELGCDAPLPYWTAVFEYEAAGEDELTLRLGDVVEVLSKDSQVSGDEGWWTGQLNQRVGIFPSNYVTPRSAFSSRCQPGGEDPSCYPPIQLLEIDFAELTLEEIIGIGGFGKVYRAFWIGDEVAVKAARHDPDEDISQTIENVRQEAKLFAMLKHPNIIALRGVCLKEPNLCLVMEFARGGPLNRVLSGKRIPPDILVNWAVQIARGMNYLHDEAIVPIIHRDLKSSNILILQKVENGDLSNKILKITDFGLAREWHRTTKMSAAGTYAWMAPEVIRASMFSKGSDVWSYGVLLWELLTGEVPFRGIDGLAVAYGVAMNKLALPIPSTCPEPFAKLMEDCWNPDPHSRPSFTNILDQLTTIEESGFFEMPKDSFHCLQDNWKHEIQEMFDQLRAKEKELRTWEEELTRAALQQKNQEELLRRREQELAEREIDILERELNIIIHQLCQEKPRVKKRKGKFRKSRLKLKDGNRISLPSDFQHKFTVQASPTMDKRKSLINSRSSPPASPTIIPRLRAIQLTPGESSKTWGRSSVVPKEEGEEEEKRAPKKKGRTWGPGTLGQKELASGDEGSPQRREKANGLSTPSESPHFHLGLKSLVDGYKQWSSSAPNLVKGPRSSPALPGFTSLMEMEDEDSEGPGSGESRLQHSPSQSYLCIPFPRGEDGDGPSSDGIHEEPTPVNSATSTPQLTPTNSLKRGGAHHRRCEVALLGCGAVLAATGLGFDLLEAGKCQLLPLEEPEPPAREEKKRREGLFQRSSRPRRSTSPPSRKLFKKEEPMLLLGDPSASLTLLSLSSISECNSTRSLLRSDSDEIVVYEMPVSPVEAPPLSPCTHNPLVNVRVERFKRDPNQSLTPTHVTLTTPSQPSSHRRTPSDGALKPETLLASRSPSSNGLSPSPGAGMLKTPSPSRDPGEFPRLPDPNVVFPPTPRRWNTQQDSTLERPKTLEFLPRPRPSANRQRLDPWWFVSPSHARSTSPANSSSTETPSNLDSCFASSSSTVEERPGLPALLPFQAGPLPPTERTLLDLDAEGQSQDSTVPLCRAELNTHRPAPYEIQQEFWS

IL-6 = assay: Phase II clinical study CEP-1347-201: sputum IL-6; type: in vivo, human; details: samples not collected in a systematic manner
asthma patients [4] = details: for patients reporting diarrhea: placebo 8%
MCP-1 = assay: Phase II clinical study CEP-1347-201: additional biomarkers of inflammation; type: in vivo, human; details: prior to and 4 and 8 weeks after study drug administration; CEP-1347 vs placebo groups
Experimental: (§1) Biomarkers of inflammation were measured prior to and 4 and 8 weeks after study drug administration.

VCAM-1 = assay: as above; type: in vivo, human; details: prior to and 4 and 8 weeks after study drug administration; CEP-1347 vs placebo groups
Experimental: as §1

ICAM-1 = assay: as above; type: in vivo, human; details: prior to and 4 and 8 weeks after study drug administration; CEP-1347 vs placebo groups
Experimental: as §1

VEGF = assay: as above; type: in vivo, human; details: prior to and 4 and 8 weeks after study drug administration; CEP-1347 vs placebo groups
Experimental: as §1

SMILES: CCSCc1ccc2c(c1)c1c3c(c4c5cc(CSCC)ccc5n5c4c1n2C1CC(O)(C(=O)OC)C5(C)O1)CNC3=O (centres unmarked) [CEP-1347]
- eNO Change from Baseline at Week 8, LS Mean ([1]; 10 mg BID, p 0.26): −4.86
- eNO Change from Baseline at Week 8, LS Mean ([1]; 25 mg BID, p 0.86): −1.88
- eNO Change from Baseline at Week 8, LS Mean ([1]; 50 mg BID, p 0.58): −3.08
- eNO change from baseline at week 8 (ANCOVA) ([1]; all CEP-1347 treatment groups relative to placebo, none of the changes achieved statistical significance): greater decrease
- production of IL-1β by mice after LPS challenge (IL-1β): reduces production
- asthma exacerbations (asthma patients [2]; 50 mg BID group, positive trend only): reduction of exacerbations
- progression of airway remodeling (asthma patients [2]; in particular with the 25 mg BID dose (FIG. 13)): Positive effects
- sE Selection Change from Baseline at Week 8, LS Mean (sE-Selectin; 10 mg BID, p 0.12): −1.49
- sE Selection Change from Baseline at Week 8, LS Mean (sE-Selectin; 25 mg BID, p 0.005): −3.18
- sE Selection Change from Baseline at Week 8, LS Mean (sE-Selectin; 50 mg BID, p 0.26): −1.00
- sE-Selection levels (sE-Selectin; CEP-1347 treated groups compared to placebo, p=0.02): significantly lower
- protection from LPS-induced death (mice): provides protection
- EC50 ([3]; greater potency than K-252a, read-out: potency (EC50) in spinal cord ChAT assays): 50 nM
- efficacy in spinal cord ChAT assays ([3]; greater than K-252a): 250 % of control
- sputum IL-8 (ANCOVA) (IL-8): no clear treatment related trends or statistically significant changes
- kinetics of inhibition of MLK kinases, mode of action (MLK1): competitive with the binding of adenosine triphosphate
- sputum IL-6 (ANCOVA) (IL-6): no clear treatment related trends or statistically significant changes
- subjects reporting a severe adverse event (asthma patients [4]; 10 mg BID group): 2
- subjects reporting a severe adverse event (asthma patients [4]; 25 mg BID group): 1
- subjects reporting a severe adverse event (asthma patients [4]; 50 mg BID group): 1
- patients reporting diarrhea (asthma patients [4]; CEP-1347 groups, all doses combined): 15%
- subjects reporting a severe adverse event, total (asthma patients [4]; all groups): four
- patients reporting diarrhea (asthma patients [4]; high dose group (50 mg BID)): 20%
- headache incidence (asthma patients [4]; treatment group (all CEP-1347 doses), placebo 5%): 9%
- deaths (asthma patients [4]; whole study): no deaths
- concentration of MCP-1 (MCP-1): No differences
- concentration of VCAM-1 (VCAM-1): No differences
- concentration of ICAM-1 (ICAM-1): No differences
- concentration of VEGF (VEGF): No differences
